Measured values: ChEMBL document CHEMBL4616724, “Topoisomerase Inhibitors Addressing Fluoroquinolone Resistance in Gram-Negative Bacteria” (J Med Chem, 2020)
In brackets after ≈: the same amount, converted by molar mass.

Assays:
[1] = test system: Escherichia coli; test: Antibacterial activity against wild type Escherichia coli ATCC 25922 at pH 7.4 by CLSI-based broth microdilution assay; type: functional
[2] = test system: Pseudomonas aeruginosa; test: Antibacterial activity against wild type Pseudomonas aeruginosa PAO1 K767 by CLSI-based broth microdilution assay; type: functional
[3] = test system: Klebsiella pneumoniae; test: Antibacterial activity against wild type Klebsiella pneumoniae ATCC 43816 by CLSI-based broth microdilution assay; type: functional
[4] = test system: Pseudomonas aeruginosa; test: Antibacterial activity against Pseudomonas aeruginosa K1542/K767 harboring MexB/MexXY deletion mutant by CLSI-based broth microdilution assay; type: functional
[5] = test system: Pseudomonas aeruginosa; test: Antibacterial activity against Pseudomonas aeruginosa NB52023 harboring gyrA T83I mutant/ParC S87L mutant by CLSI-based broth microdilution assay; type: functional
[6] = test system: Escherichia coli; test: Antibacterial activity against Escherichia coli BW25113/JW0451-2 harboring AcrB deletion mutant by CLSI-based broth microdilution assay; type: functional
[7] = test system: Escherichia coli; test: Antibacterial activity against wild type Escherichia coli ATCC 25922 at pH 5.8 by CLSI-based broth microdilution assay; type: functional
[8] = test system: Escherichia coli; test: Ratio of MIC for antibacterial activity against wild type Escherichia coli ATCC 25922 at pH 5.8 to MIC for antibacterial activity against wild type Escherichia coli ATCC 25922 at pH 7.4; type: functional
[9] = molecular target: DNA gyrase (Escherichia coli, UniProt P0AES4+P0AES6); test: Inhibition of recombinant full-length C-terminal His6-tagged Escherichia coli DNA gyrase AB supercoiling activity using relaxed DNA as substrate preincubated for 30 mins followed by substrate addition and measured after 2 hrs in presence of ATP by size exclusion HPLC analysis; type: protein-complex assay
[10] = Inhibition of recombinant full-length C-terminal His6-tagged Escherichia coli DNA topoisomerase 4 subunit ParC/ParE using kinetoplast DNA as substrate preincubated for 30 mins followed by substrate addition and measured after 1 hr in presence of ATP by size exclusion chromatography
[11] = Selectivity ratio of MIC for Pseudomonas aeruginosa NB52023 harboring gyrA T83I mutant/ParC S87L mutant to MIC for Pseudomonas aeruginosa K1542/K767 harboring MexB/MexXY deletion mutant; type: functional
[12] = Solubility of the compound in pH 7 PBS incubated for 24 hrs under gently shaking condition by UPLC/UV/CLND/MS analysis; type: physicochemical; conditions: PBS, pH 7
[13] = n-Octanol-PBS buffer partition coefficient, log D of the compound at pH 7.4 after overnight incubation by LC/UV/qTOF analysis; type: physicochemical
[14] = Protein binding in CD1 mouse plasma at 10 uM incubated for 4 hrs under shaking condition by LC-MS/MS analysis; type: ADME, cell-free; conditions: read-out: PPB (converted)
[15] = Protein binding in Sprague-Dawley rat plasma at 10 uM incubated for 4 hrs under shaking condition by LC-MS/MS analysis; type: ADME, cell-free; conditions: read-out: PPB (converted)
[16] = Protein binding in pooled human plasma at 10 uM incubated for 4 hrs under shaking condition by LC-MS/MS analysis; type: ADME, cell-free; conditions: read-out: PPB (converted)
[17] = Intrinsic clearance in rat liver microsomes at 1 uM in presence of NADPH and measured up to 30 mins by LC-MS/MS analysis; type: ADME, Microsome; conditions: read-out: CLH
[18] = Intrinsic clearance in human liver microsomes at 1 uM in presence of NADPH and measured up to 30 mins by LC-MS/MS analysis; type: ADME, Microsome; conditions: read-out: CLH

SMILES | MIC [1] [µg/mL] | MIC [2] [µg/mL] | MIC [3] [µg/mL] | MIC [4] [µg/mL] | MIC [5] [µg/mL] | MIC [6] [µg/mL] | MIC [7] [µg/mL] | Ratio [8] | IC50 [9] [nM] | IC50 [10] [nM] | Selectivity ratio [11] | solubility at 24 h [12] [µg/mL] | logD [13] | fraction unbound at 4 h, 10 µM [14] | fraction unbound at 4 h, 10 µM [15] | fraction unbound at 4 h, 10 µM [16] | microsomal CLint at 1 µM [17] [µL/min/mg] | microsomal CLint at 1 µM [18] [µL/min/mg]
Cc1c(N2CC[C@H](O)C2)c(F)cc2c(CN)cc(=O)n(C3CC3)c12 | 0.5 (≈ 1.51 µM) | 4 (≈ 12.1 µM) | 1 (≈ 3.02 µM) | 0.25 (≈ 0.754 µM) | 1 (≈ 3.02 µM) | ≤ 0.03 | 8 (≈ 24.1 µM) | 16 | – | – | – | – | – | – | – | – | – | –
Cc1c(N2CC3CC3(N)C2)c(F)cc2c(CN)c(O)c(=O)n(C3CC3)c12 (stereo unspecified) | 0.5 (≈ 1.4 µM) | 2 (≈ 5.58 µM) | 1 (≈ 2.79 µM) | 0.5 (≈ 1.4 µM) | 2 (≈ 5.58 µM) | 0.25 (≈ 0.698 µM) | – | – | – | – | – | – | – | – | – | – | – | –
Cc1c(N2C[C@@H]3[C@@H](N)[C@@H]3C2)c(F)cc2c(CN)cc(=O)n(C3CC3)c12 | 1 (≈ 2.92 µM) | 16 (≈ 46.7 µM) | 4 (≈ 11.7 µM) | 1 (≈ 2.92 µM) | 2 (≈ 5.84 µM) | 0.25 (≈ 0.73 µM) | – | – | – | – | – | – | – | – | – | – | – | –
Cc1c(N2CC[C@@H]([C@H](C)N)C2)c(F)cc2cc(C(=O)O)c(=O)n(C3CC3)c12 | 4 (≈ 10.7 µM) | – | 8 (≈ 21.4 µM) | – | 64 (≈ 171 µM) | – | – | – | 2910 | 4800 | 8 | – | – | – | – | – | – | –
Cc1c(CN)c2cc(F)c(N3CC4CC4(N)C3)c(C)c2n(C2CC2)c1=O (stereo unspecified) | 0.25 (≈ 0.701 µM) | 8 (≈ 22.4 µM) | 1 (≈ 2.81 µM) | 1 (≈ 2.81 µM) | 2 (≈ 5.61 µM) | 0.125 (≈ 0.351 µM) | – | – | – | – | – | – | – | – | – | – | – | –
Cc1c(N2CC[C@@H]([C@H](C)N)C2)c(F)cc2c(OCCN(C)C)cc(=O)n(C3CC3)c12 | 1 (≈ 2.4 µM) | 8 (≈ 19.2 µM) | 4 (≈ 9.6 µM) | 4 (≈ 9.6 µM) | 8 (≈ 19.2 µM) | – | – | – | – | – | – | – | – | – | – | – | – | –
Cc1c(N2CC[C@@H]([C@H](C)N)C2)c(F)cc2c(Cl)cc(=O)n(C3CC3)c12 | 2 (≈ 5.5 µM) | 8 (≈ 22 µM) | 4 (≈ 11 µM) | 4 (≈ 11 µM) | 8 (≈ 22 µM) | 0.06 (≈ 0.165 µM) | – | – | – | – | – | – | – | – | – | – | – | –
Cc1c(N2CC[C@@H]([C@H](C)N)C2)c(F)cc2ccc(=O)n(C3CC3)c12 | 1 (≈ 3.04 µM) | 16 (≈ 48.6 µM) | 4 (≈ 12.1 µM) | 4 (≈ 12.1 µM) | 8 (≈ 24.3 µM) | 0.06 (≈ 0.182 µM) | 16 (≈ 48.6 µM) | – | 430 | 390 | – | 498 (≈ 1510 µM) | 0.74 | 0.19 | 0.25 | 0.1 | 10 | < 7.7
Cc1c(N2CCNCC2)c(F)cc2c(CN)cc(=O)n(C3CC3)c12 | 0.25 to 4 (≈ 0.757 to 12.1 µM) | 4 to 8 (≈ 12.1 to 24.2 µM) | 0.5 to 2 (≈ 1.51 to 6.05 µM) | 0.5 to 1 (≈ 1.51 to 3.03 µM) | 1 to 2 (≈ 3.03 to 6.05 µM) | 0.06 to 1 (≈ 0.182 to 3.03 µM) | – | – | – | – | – | – | – | – | – | – | – | –
Cc1c(N2CCCC2)c(F)cc2c(CN)cc(=O)n(C3CC3)c12 | 1 (≈ 3.17 µM) | 32 (≈ 101 µM) | 2 (≈ 6.34 µM) | 4 (≈ 12.7 µM) | 8 (≈ 25.4 µM) | 0.06 (≈ 0.19 µM) | – | – | – | – | – | – | – | – | – | – | – | –
N#Cc1c(N2CC3CC3(N)C2)c(F)cc2c(CN)cc(=O)n(C3CC3)c12 (stereo unspecified) | 1 (≈ 2.83 µM) | 16 (≈ 45.3 µM) | 2 (≈ 5.66 µM) | 2 (≈ 5.66 µM) | 4 (≈ 11.3 µM) | 0.125 (≈ 0.354 µM) | – | – | – | – | – | – | – | – | – | – | – | –
Cc1c(N2CC3CC3(N)C2)c(F)cc2c(CN)c(Cl)c(=O)n(C3CC3)c12 (stereo unspecified) | 0.25 (≈ 0.663 µM) | 8 (≈ 21.2 µM) | 0.5 (≈ 1.33 µM) | 1 (≈ 2.65 µM) | 2 (≈ 5.31 µM) | 0.06 (≈ 0.159 µM) | – | – | – | – | – | – | – | – | – | – | – | –
Cc1c(N2CC3CC3(CN)C2)c(F)cc2c(CN)cc(=O)n(C3CC3)c12 (racemic) | 8 (≈ 22.4 µM) | 32 (≈ 89.8 µM) | 32 (≈ 89.8 µM) | 4 (≈ 11.2 µM) | 16 (≈ 44.9 µM) | 1 (≈ 2.81 µM) | – | – | – | – | – | – | – | – | – | – | – | –
Cc1c(N2C[C@@]3(C)C[C@@]3(N)C2)c(F)cc2c(CN)cc(=O)n(C3CC3)c12 (racemic) | 0.125 (≈ 0.351 µM) | 4 (≈ 11.2 µM) | 0.25 (≈ 0.701 µM) | 1 (≈ 2.81 µM) | 2 (≈ 5.61 µM) | ≤ 0.03 | – | – | – | – | – | – | – | – | – | – | – | –
NCc1cc(=O)n(C2CC2)c2c(OC(F)F)c(N3CC4CC4(N)C3)c(F)cc12 (stereo unspecified) | 2 (≈ 5.07 µM) | > 32 | 8 (≈ 20.3 µM) | 8 (≈ 20.3 µM) | 32 (≈ 81.1 µM) | 1 (≈ 2.54 µM) | – | – | – | – | – | – | – | – | – | – | – | –
